From a melting point compilation (Tetko et al.)

| melting point [°C] | SMILES |
| --- | --- |
| 103 to 105 | COc1ccc(N2CCC2=O)cc1 |
| 172 to 174 | Cn1cnn(CC(=O)O)c1=O |
| 104 to 106 | CCS(=O)(=O)c1ccc(Cl)cc1C(=O)O |
| 190 to 192 | CNc1nc2ccccc2[nH]1 |
| 90 to 92 | Nc1sc2c(c1C(=O)N1CCOCC1)CCCC2 |
| 115 to 117 | O=S(=O)(Cl)Cc1cc(-c2ccccc2)no1 |
| 177 to 179 | NC(=O)c1ccn(-c2cccc(N)c2)n1 |
| 139 to 141 | O=C(CCCl)N1CCN(c2ncccn2)CC1 |
| 172 to 174 | O=S(=O)(Cl)CCS(=O)(=O)c1ccccc1 |
| 240 to 242 | Cc1cc(C)cc(-c2nnc(S)o2)c1 |
| 191 to 196 | O=C(O)C1CCN(C(=O)/C=C/c2ccccc2)CC1 |
| 81 to 83 | CC(=CC(=O)O)c1ccccc1C |
| 140 to 147 | Cc1ccc(C(=O)O)cc1S(=O)(=O)Cl |
| 33 to 35 | CCCC(C)=CC(=O)O |
| 56 to 58 | Cc1cc(C)cc(Oc2ccc(CN)cc2C)c1 |
| 249 to 251 | CC(C)Cn1c(N)c(Br)c(=O)[nH]c1=O |
| 110 to 112 | Oc1ccccc1Oc1ccccn1 |
| 138 to 142 | O=C(O)COc1ccc(Nc2ccccc2)cc1 |
| 60 to 62 | S=C=Nc1cccc2ncccc12 |
| 223 to 225 | CC(=O)NC1=NN(C(C)=O)C(C)(c2ccccc2)S1 (stereo not drawn) |
| 254 to 256 | CC(C)n1ccc(=O)nc1S |
| 70 to 72 | Cc1c(C)c(C)c(C(=O)CCl)c(C)c1C |
| 51 to 53 | O=C1C=CC(=O)N1c1ccccc1Sc1ccccc1 |
| 81 to 83 | COc1ccc(C(=O)c2ccccc2)c(OC)c1 |
| 255 to 257 | O=C(O)C1CC(=O)N(C2CCS(=O)(=O)C2)C1 (stereo not drawn) |

| melting point [°C] | SMILES |
| --- | --- |
| 179 to 181 | CCCCCC(=O)Nc1ccc(C(=O)CCl)cc1 |
| 124 to 126 | Cc1ccc(S(=O)(=O)NC(C)(C)C)cc1N |
| 86 to 88 | O=[N+]([O-])c1ccc(Br)cc1F |
| 148 to 150 | CS(=O)(=O)c1ccc(F)cc1[N+](=O)[O-] |
| 227 to 229 | Nc1cc2c(cc1Cl)NC(=O)CO2 |
| 170 to 172 | NNC(=O)COc1ccc(Br)cc1 |
| 104 to 106 | CCC(C#N)NC(=O)c1ccccc1 (stereo not drawn) |
| 148 to 150 | O=C(O)CCCc1nc2ccccc2s1 |
| 129 to 131 | CCn1nc(C)c(C(=O)O)c1Cl |
| 75 to 77 | CCOC(=O)Cc1nc(-c2ccc(OC)c(OC)c2)no1 |
| 59 to 61 | CC(=O)N(CCC#N)C(C)C |
| 215 to 217 | O=C(O)c1cc2c(OC(F)F)cccc2[nH]1 |
| 135 to 137 | COc1ccc(CC(N)=NO)cc1OC |
| 61 to 63 | CCN(C)S(=O)(=O)c1c(C)n[nH]c1C |
| 70 to 72 | NCc1nnc2n1CCCCC2 |
| 96 to 98 | CCCC(=O)Nc1ccc(Cl)c(N)c1 |
| 106 to 108 | N#CCc1ccccc1C(=O)O |
| 169 to 171 | Nc1cnn(-c2ncccn2)c1 |
| 144 to 146 | Cc1c(Cl)cccc1-n1ccnc1SCC(=O)O |
| 149 to 151 | COC(=O)c1ccncc1O |
| 281 to 283 | Cc1c(C(=O)O)sc2nc3n(c(=O)c12)CCC3 |
| 230 to 232 | CCCn1c(=O)[nH]c(=O)c2c(C(=O)O)cc(-c3ccccc3)nc21 |
| 235 to 237 | O=C(c1ccsc1)N1CCNCC1 |
| 126 to 128 | CC(C)(C)c1ccc(S(=O)(=O)N2CCNCC2)cc1 |
| 136 to 138 | NCCCNC(=O)c1cccc(O)c1 |

| melting point [°C] | SMILES |
| --- | --- |
| 178 to 180 | CC(C)(C)Sc1ccc(C(N)=S)cn1 |
| 142 to 144 | CCOC(=O)/C(C#N)=C/Nc1ccc(F)cc1F |
| 120 to 122 | Nc1cccc(NC(=O)c2ccoc2)c1 |
| 174 to 176 | CC1CN(C(=O)c2ccc(N)cc2)CC(C)O1 (stereo not drawn) |
| 174 to 176 | CCCc1noc2ncc(C(=O)O)cc12 |
| 57 to 59 | O=S(=O)(Cl)c1sc(Cl)nc1Cl |
| 51 to 53 | COC(=O)CCOc1ccc(N)cc1 |
| 98 to 100 | Clc1cc(NCC2CC2)ncn1 |
| 273 to 275 | O=C(O)c1cc(-c2ccccc2Cl)nc2ccccc12 |
| 106 to 108 | NCc1ccc(OCC(N)=O)cc1 |
| 178 to 180 | CC1(c2cccc([N+](=O)[O-])c2)NC(=O)NC1=O (stereo not drawn) |
| 185 to 187 | CC(=O)Nc1cccc(N2C(=O)C=CC2=O)c1 |
| 67 to 69 | CCOC(=O)N1CCN(S(=O)(=O)Cl)CC1 |
| 131 to 133 | CN(c1ccc(O)cc1)S(=O)(=O)c1ccccc1 |
| 101 to 103 | OCc1ncc(-c2cccc(Cl)c2)o1 |
| 195 to 197 | CC1CCN(c2cc(C(=O)O)ccn2)C1 (stereo not drawn) |
| 117 to 121 | O=C(O)c1ccccc1OCc1cscn1 |
| 59 to 61 | Cc1nn(-c2ccccc2F)c(C)c1N |
| 187 to 189 | COc1cc2nc(C)oc(=O)c2cc1OC |
| 94 to 96 | O=C(O)c1cccc(C(F)(F)C(F)(F)F)c1 |
| 212 to 214 | COc1ccc(-c2nn(CCC#N)cc2/C=C(/C#N)C(=O)O)cc1 |
| 169 to 171 | Cc1cc(CSc2ncccc2C(=O)O)no1 |
| 169 to 171 | COc1c(Cl)ccnc1O |
| 331 to 333 | COc1cc(-n2cnnn2)c(Cl)cc1C(=O)O |
| 306 to 308 | O=C(CCl)Nc1sc2c(c1C(=O)NCc1ccccc1)CCCC2 |

| melting point [°C] | SMILES |
| --- | --- |
| 126 to 128 | Cc1ccc(OCCCC(=O)Nc2ccc(C#N)cc2)cc1 |
| 252 to 254 | Cc1cc(C)c(S(N)(=O)=O)cc1C(=O)O |
| 132 to 134 | CC1CN(Cc2csc(N)n2)CC(C)O1 (stereo not drawn) |
| 60 to 62 | Cc1nc(CCl)nc2ccccc12 |
| 44 to 46 | c1ccc(CN2CCNc3ccccc32)cc1 |
| 162 to 164 | O=C(O)c1cc(Cl)cc(S(=O)(=O)Cl)c1F |
| 138 to 140 | Nc1ccc(CC2CC(=O)NC2=O)cc1 (stereo not drawn) |
| 45 to 47 | c1cnn(CC2CCNCC2)c1 |
| 127 to 129 | CC(C)c1ccc(NCC(=O)N2CCCC2)cc1 |
| 170 to 172 | O=C(O)c1ccc(Br)cc1I |
| 166 to 168 | N#Cc1c(N)sc2c1-c1ccccc1CC2 |
| 167 to 169 | Nc1nc(-c2c[nH]c3ccccc23)cs1 |
| 235 to 237 | Cc1oc2cc(O)ccc2c(=O)c1Oc1ccccc1 |
| 142 to 145 | O=C(O)c1ccc(Cl)c(S(=O)(=O)Cl)c1 |
| 103 to 105 | COC(=O)C(=O)CC(=O)c1ccc(Cl)s1 |
| 174 to 176 | C=CCn1c(N)c(C#N)sc1=S |
| 111 to 113 | O=C(NC1CC1)c1ccc(Br)cc1F |
| 119 to 121 | CCOC(=O)c1cnn(-c2ccc(OCC)cc2)c1N |
| 133 to 135 | O=C(CCl)NCC(=O)c1cccs1 |
| 114 to 116 | CC(N)(C(N)=O)c1ccccc1 (stereo not drawn) |
| 136 to 138 | NC(=O)C1CCN(C(=O)CCl)CC1 |
| 63 to 65 | Cc1nc2cc(C(F)(F)F)ccc2s1 |
| 168 to 170 | Cc1ccc(C(=O)O)c(C)n1 |
| 168 to 170 | Cc1ccccc1-c1cc(N)[nH]n1 |

| SMILES | melting point [°C] |
| --- | --- |
| COc1cc(OC)cc(C(O)CN)c1 (stereo not drawn) | 92 to 94 |
| CCc1ccccc1-n1c(S)nc2ccccc2c1=O | 304 to 306 |
| CC(C)CNC(=O)NC(=O)CCl | 105 to 107 |
| Cc1cc(O)nc(CCl)n1 | 147 to 149 |
